The first assay relates to HepG2 cells. Kind of assay: In vitro De Novo Lipogenesis (DNL) assay, 13C-acetate incorporation into palmitic acid. Format: cell-based. To be noted: 1 hour preincubation, 24 hours with 10 mM 13C-labeled acetate. The protocol:
De Novo Lipogenesis (DNL) was measured in vitro in HepG2 cells by quantifying the incorporation of ^13C-labeled acetate into palmitic acid.
HepG2 cells were plated in growth medium (DMEM (Corning cat #15-018-CM) supplemented with 10% FBS (HyClone cat #SH30071-03), and 1× penicillin, streptomycin, glutamine (Corning cat #30-009-CI)) at 10,000 cells/well in a 384-well cell culture-treated plate (Greiner cat #781091). The cells were then incubated overnight at 37° C., 5% CO2. The next day, the cells were washed twice with sterile DPBS (Corning cat #21-031-CM) and the culture medium was changed to fresh growth medium. The compounds of interest were dosed to cells, followed by a 1 hour incubation at 37° C., 5% CO2. ^13C-labeled acetate (Sigma-Aldrich cat #279315-1G) was added to the culture medium at a concentration of 10 mM and the cells were incubated for 24 hours at 37° C., 5% CO2.
In order to analyze the lipid content of the HepG2 cells, the culture medium was removed and the cells were lysed by adding 30 μL of 0.1 M NaOH. After 5 minutes of incubation at room temperature, 15 μL of cell lysate was transferred to a 384-well deep-well plate (Sigma-Aldrich cat #BR701355-48EA) containing 15 μL of 7.3% KOH in ethanol and mixed. This plate was sealed and incubated at 70° C. for 4 hours to hydrolyze the lipids to free fatty acids. 100 μL of acetonitrile was then added and the plate was spun at 3,700 g for 20 minutes to separate the organic and aqueous phases. 50 μL from the top (organic) phase was transferred to a new 384-well plate (NUNC cat #264573) and the samples were analyzed by mass spectrometry using a RapidFire coupled to a QTOF mass spectrometer. The sum of the area under curve (AUC) for palmitate containing 3 to 7 ^13C was normalized with the AUC of oleate and plotted against compound concentration to determine the potency of ACC inhibitors. […]
The EC50 is the concentration needed to bring the measured effect to its halfway point. Read a low EC50 as greater potency. As for `COc1ccccc1[C@H](Cn1c(=O)n(C(C)(C)C(=O)NS(=O)(=O)C2CC2)c(=O)c2c(C)c(-c3ncco3)sc21)O[C@@H]1C[C@H]2CC[C@@H](C1)O2` [Example 4, 2-(1-((R)-2-(((1R,3s,5S)-8-oxabicyclo[3.2.1]octan-3-yl)oxy)-2-(2-methoxyphenyl)ethyl)-5-methyl-6-(oxazol-2-yl)-2,4-dioxo-1,4-dihydrothieno[2,3-d]pyrimidin-3 (2H)-yl)-N-(cyclopropylsulfonyl)-2-methylpropanamide], the EC50 was 1.7 nM.

“2-(1-((R)-2-(((1R,3s,5S)-8-oxabicyclo[3.2.1]octan-3-yl)oxy)-2-(2-methoxyphenyl)ethyl)-5-methyl-6-(oxazol-2-yl)-2,4-dioxo-1,4-dihydrothieno[2,3-d]pyrimidin-3 (2H)-yl)-N-(tert-butylsulfonyl)-2-methylpropanamide [Example 3]” returned an EC50 of 1.5 nM.

Still in this assay, the particulars now being: Homo sapiens, 1 hour preincubation, 24 hours with 10 mM 13C-labeled acetate.
On to `COc1ccccc1[C@H](Cn1c(=O)n([C@@H](C)C(=O)NS(=O)(=O)C(C)(C)C)c(=O)c2c(C)c(-c3ncco3)sc21)O[C@@H]1C[C@H]2CC[C@@H](C1)O2` [Example 17, (S)-2-(1-((R)-2-(((1R,3s,5S)-8-oxabicyclo[3.2.1]octan-3-yl)oxy)-2-(2-methoxyphenyl)ethyl)-5-methyl-6-(oxazol-2-yl)-2,4-dioxo-1,4-dihydrothieno[2,3-d]pyrimidin-3(2H)-yl)-N-(tert-butylsulfonyl)propanamide], for which a half-maximal response (EC50) required 41.1 nM.

With `COc1ccc(F)cc1[C@H](Cn1c(=O)n(C(C)(C)C(=O)NS(=O)(=O)C2(C)CC2)c(=O)c2c(C)c(-c3ncco3)sc21)O[C@@H]1C[C@H]2CC[C@@H](C1)O2` [Example 5, 2-(1-((R)-2-(((1R,3s,5S)-8-oxabicyclo[3.2.1]octan-3-yl)oxy)-2-(5-fluoro-2-methoxyphenyl)ethyl)-5-methyl-6-(oxazol-2-yl)-2,4-dioxo-1,4-dihydrothieno[2,3-d]pyrimidin-3(2H)-yl)-2-methyl-N-((1-methylcyclopropyl)sulfonyl)propanamide], a half-maximal effect (EC50) was put at 2.9 nM.

For `Cc1c(-c2ncco2)sc2c1c(=O)n(C1(C(=O)NS(=O)(=O)C3(C)CC3)CC1)c(=O)n2C[C@H](O[C@@H]1C[C@H]2CC[C@@H](C1)O2)c1ccccc1OC(F)F` [Example 14, 1-(1-((R)-2-(((1R,3s,5S)-8-oxabicyclo[3.2.1]octan-3-yl)oxy)-2-(2-(difluoromethoxy)phenyl)ethyl)-5-methyl-6-(oxazol-2-yl)-2,4-dioxo-1,4-dihydrothieno[2,3-d]pyrimidin-3(2H)-yl)-N-((1-methylcyclopropyl)sulfonyl)cyclopropane-1-carboxamide], the EC50 was found to be 29.8 nM.

`Cc1c(-n2nccn2)sc2c1c(=O)n(C1(C(=O)NS(=O)(=O)C(C)(C)C)CC1)c(=O)n2C[C@H](O[C@H]1C[C@H]2CC[C@@H](C1)O2)c1ccccc1OC(F)F` [Example 22, 1-(1-((R)-2-(((1R,3r,5S)-8-oxabicyclo[3.2.1]octan-3-yl)oxy)-2-(2-(difluoromethoxy)phenyl)ethyl)-5-methyl-2,4-dioxo-6-(2H-1,2,3-triazol-2-yl)-1,4-dihydrothieno[2,3-d]pyrimidin-3(2H)-yl)-N-(tert-butylsulfonyl)cyclopropane-1-carboxamide] yielded an EC50 of 916 nM.

Compound `Cc1c(-c2ncco2)sc2c1c(=O)n(C1(C(=O)NS(=O)(=O)C3(C)CC3)CC1)c(=O)n2C[C@H](O[C@@H]1C[C@H]2CC[C@@H](C1)O2)c1cc(F)ccc1OC(F)F` [Example 10, 1-(1-((R)-2-(((1R,3s,5S)-8-oxabicyclo[3.2.1]octan-3-yl)oxy)-2-(2-(difluoromethoxy)-5-fluorophenyl)ethyl)-5-methyl-6-(oxazol-2-yl)-2,4-dioxo-1,4-dihydrothieno[2,3-d]pyrimidin-3(2H)-yl)-N-((1-methylcyclopropyl)sulfonyl)cyclopropane-1-carboxamide] had an EC50 of 48.3 nM.

In the case of `COc1ccccc1[C@H](Cn1c(=O)n(C(C)(C)C(=O)NS(=O)(=O)C2(C)CC2)c(=O)c2c(C)c(C#N)sc21)O[C@@H]1C[C@H]2CC[C@@H](C1)O2` [Example 32, 2-(1-((R)-2-(((1R,3s,5S)-8-oxabicyclo[3.2.1]octan-3-yl)oxy)-2-(2-methoxyphenyl)ethyl)-6-cyano-5-methyl-2,4-dioxo-1,4-dihydrothieno[2,3-d]pyrimidin-3(2H)-yl)-2-methyl-N-((1-methylcyclopropyl)sulfonyl)propanamide], a half-maximal response (EC50) required 9.9 nM.

As to `Cc1c(-c2ncco2)sc2c1c(=O)n([C@@H](C)C(=O)NS(=O)(=O)C1(C)CC1)c(=O)n2C[C@H](O[C@@H]1C[C@H]2CC[C@@H](C1)O2)c1cc(F)ccc1OC(F)F` [Example 15, (S)-2-(1-((R)-2-(((1R,3s,5S)-8-oxabicyclo[3.2.1]octan-3-yl)oxy)-2-(2-(difluoromethoxy)-5-fluorophenyl)ethyl)-5-methyl-6-(oxazol-2-yl)-2,4-dioxo-1,4-dihydrothieno[2,3-d]pyrimidin-3(2H)-yl)-N-((1-methylcyclopropyl)sulfonyl)propanamide], it took 2000 nM to reach a half-maximal effect (EC50).

In the case of `Cc1c(-c2ncco2)sc2c1c(=O)n(C(C)(C)C(=O)NS(=O)(=O)C(C)(C)C)c(=O)n2C[C@H](O[C@@H]1C[C@H]2CC[C@@H](C1)O2)c1cc(F)ccc1OC(F)F` [Example 8, 2-(1-((R)-2-(((1R,3s,5S)-8-oxabicyclo[3.2.1]octan-3-yl)oxy)-2-(2-(difluoromethoxy)-5-fluorophenyl)ethyl)-5-methyl-6-(oxazol-2-yl)-2,4-dioxo-1,4-dihydrothieno[2,3-d]pyrimidin-3(2H)-yl)-N-(tert-butylsulfonyl)-2-methylpropanamide], the EC50 was found to be 7 nM.

The compound `Cc1c(-n2nccn2)sc2c1c(=O)n(C1(C(=O)NS(=O)(=O)C3(C)CC3)CC1)c(=O)n2C[C@H](O[C@@H]1C[C@H]2CC[C@@H](C1)O2)c1ccccc1OC(F)F` [Example 26, 1-(1-((R)-2-(((1R,3s,5S)-8-oxabicyclo[3.2.1]octan-3-yl)oxy)-2-(2-(difluoromethoxy)phenyl)ethyl)-5-methyl-2,4-dioxo-6-(2H-1,2,3-triazol-2-yl)-1,4-dihydrothieno[2,3-d]pyrimidin-3(2H)-yl)-N-((1-methylcyclopropyl)sulfonyl)cyclopropane-1-carboxamide] yielded an EC50 of 24.6 nM.

Turning to `COc1ccccc1[C@H](Cn1c(=O)n(C2(C(=O)NS(=O)(=O)C3(C)CC3)CC2)c(=O)c2c(C)c(-n3nccn3)sc21)O[C@@H]1C[C@H]2CC[C@@H](C1)O2` [Example 25, 1-(1-((R)-2-(((1R,3s,5S)-8-oxabicyclo[3.2.1]octan-3-yl)oxy)-2-(2-methoxyphenyl)ethyl)-5-methyl-2,4-dioxo-6-(2H-1,2,3-triazol-2-yl)-1,4-dihydrothieno[2,3-d]pyrimidin-3(2H)-yl)-N-((1-methylcyclopropyl)sulfonyl)cyclopropane-1-carboxamide], the response was half-maximal at 1 nM (EC50).

As for `COc1ccccc1[C@H](Cn1c(=O)n([C@H](C)C(=O)NS(=O)(=O)C2(C)CC2)c(=O)c2c(C)c(-c3ncco3)sc21)O[C@@H]1C[C@H]2CC[C@@H](C1)O2` [Example 18, (R)-2-(1-((R)-2-(((1R,3s,5S)-8-oxabicyclo[3.2.1]octan-3-yl)oxy)-2-(2-methoxyphenyl)ethyl)-5-methyl-6-(oxazol-2-yl)-2,4-dioxo-1,4-dihydrothieno[2,3-d]pyrimidin-3(2H)-yl)-N-((1-methylcyclopropyl)sulfonyl)propanamide], the midpoint of the response, the EC50, lay at 1 nM. This lies in the single-digit nanomolar range.

With `Cc1c(-c2ncco2)sc2c1c(=O)n(C(C)(C)C(=O)NS(=O)(=O)c1ccccn1)c(=O)n2C[C@H](O[C@@H]1C[C@H]2CC[C@@H](C1)O2)c1cc(F)ccc1OC(F)F` [Example 9, 2-(1-((R)-2-(((1R,3s,5S)-8-oxabicyclo[3.2.1]octan-3-yl)oxy)-2-(2-(difluoromethoxy)-5-fluorophenyl)ethyl)-5-methyl-6-(oxazol-2-yl)-2,4-dioxo-1,4-dihydrothieno[2,3-d]pyrimidin-3(2H)-yl)-2-methyl-N-(pyridin-2-ylsulfonyl)propanamide], the EC50 stood at 215 nM.

`Cc1c(-n2nccn2)sc2c1c(=O)n(C1(C(=O)NS(=O)(=O)C3(C)CC3)CC1)c(=O)n2C[C@H](O[C@@H]1C[C@H]2CC[C@@H](C1)O2)c1cc(F)ccc1OC(F)F` [Example 28, 1-(1-((R)-2-(((1R,3s,5S)-8-oxabicyclo[3.2.1]octan-3-yl)oxy)-2-(2-(difluoromethoxy)-5-fluorophenyl)ethyl)-5-methyl-2,4-dioxo-6-(2H-1,2,3-triazol-2-yl)-1,4-dihydrothieno[2,3-d]pyrimidin-3(2H)-yl)-N-((1-methylcyclopropyl)sulfonyl)cyclopropane-1-carboxamide]: the midpoint of the response, the EC50, lay at 0.9 nM.

For the origin of these results see patent US11352371B2, “Thienopyrimidine derivatives as ACC inhibitors and uses thereof” (Gilead Sciences, Inc., priority 2019, dated 2022).
